Laboratory results reported in patent US5668133A, “Ophthalmic compositions comprising emedastine and methods for their use” (priority 1995, dated 1997).

System: passive anaphylaxis in guinea pig conjunctiva
Assay: passive conjunctival anaphylaxis, i.v. antigen challenge
Format: in vivo
Experimental: Male Dunkin Hartley Viral Antibody Free outbred guinea pigs (Charles River Labs, Portage, Mich.), weighing approximately 250-350 grams (6/group) were injected intravenously (i.v.) via the marginal ear vein with 1.0 mL of Evans Blue dye (1.0 mg/mL). Forty-five (45) minutes post dye injection, 20 μL of test compound or saline vehicle was applied topically to one eye of each experimental animal. Thirty minutes following topical drug application, the guinea pigs were anesthetized and challenged subconjunctivally with histamine (300 ng/10 μL). Responses were quantitated as described by Yanni et al. in Int. Arch. Allergy Immunol., 101:102-106 (1993). Response scores from the treated groups were then compared with scores obtained in the saline-treated group using Dunnett's t test (Dunnett C. W., "A multiple comparison procedure for comparing treatments with a control." J. Am. Stat. Assoc. 50:1096-1121(1955)). Regression analysis was used to determine relative potency (Bliss, C. and E. Gjorgy. In Vitamin Methods, Vol. 2, pp. 445-610, Academic Press, Inc., New York, 1951.).
Emedastine difumarate was evaluated for its ability to inhibit a passive conjunctival immediate hypersensitivity response following topical ocular administration.
Guinea pigs (5-8/group) were passively sensitized with anti-ovalbumin serum injected subconjunctivally in one eye. Twenty-four hours after passive sensitization, ovalbumin (OA) was administered either i.v. or topically to the eye.
The allergic response following i.v. antigen challenge was assessed as follows: thirty minutes prior to challenge, animals received 20 μL of emedastine difumarate or saline applied topically to the eye. Guinea pigs were then challenged i.v. via the marginal ear vein with 1.0 mL of a solution containing 100 μg of OA and 1 mg of Evans Blue dye. Responses were quantitated as previously described in Example 2.

[1] = i.v. antigen challenge, 30 min before challenge

In the case of `CCOCCn1c(N2CCCN(C)CC2)nc2ccccc21` [Emedastine Difumarate, 1-(2-ethoxyethyl)-2-(4-methyl-1-homopiperazinyl)-benzimidazole], the “reduction of the allergic response” value (0.001% and 0.01% solutions, 30 minutes before i.v. antigen challenge) is reported as “significant reductions of the allergic response”, the “% Change” value (i.v. antigen challenge, 0.0001 wt %, 30 min before challenge) is reported as -41% and the “% Change” value (i.v. antigen challenge, 0.001 wt %, 30 min before challenge) is reported as -66%. The “% Change” value (i.v. antigen challenge, 0.01 wt %, 30 min before challenge) was -96%, the ED50 [1] was 0.00022 wt % and the “ED50 (text)” value [1] was 0.00022%.
